CN1C(C(=O)Nc2ccccn2)=C(O)c2sccc2S1(=O)=O
Settings | solubility (mole fraction)
in PEG-400, 298.15 K | 0.00976
in PEG-400, 303.15 K | 0.0131
in PEG-400, 308.15 K | 0.0175
in PEG-400, 313.15 K | 0.0227
in PEG-400, 323.15 K | 0.0345

solubility (mole fraction)
Settings | in ethanol | in ethyl acetate | in ethylene glycol | in isopropanol | in n-butanol | in propylene glycol | in sec-butanol | in transcutol | in water
298.15 K | 3.71e-05 | 0.000679 | 0.000213 | 6.27e-05 | 8.13e-05 | 0.000194 | 6.15e-05 | 0.00183 | 4.11e-06
303.15 K | 4.11e-05 | 0.000746 | 0.000246 | 8.91e-05 | 0.000105 | 0.000235 | 8.79e-05 | 0.00202 | 5.07e-06
308.15 K | 4.56e-05 | 0.000825 | 0.000283 | 0.000125 | 0.000134 | 0.000275 | 0.000123 | 0.00222 | 6.46e-06
313.15 K | 4.98e-05 | 0.000908 | 0.000324 | 0.000164 | 0.000163 | 0.000327 | 0.000163 | 0.00241 | 8.33e-06
323.15 K | 5.84e-05 | 0.00106 | 0.000441 | 0.000267 | 0.000239 | 0.000437 | 0.000272 | 0.00286 | 1.38e-05

Reference: BigSolDB 2.1
